pIC50: −log10 of the molar value.
Tests used:
Type in all cases: cell-based
[1] = molecular target: T1, Ba/F3 cells with EGFR exon 20 NPG Ins D770_N771 (Homo sapiens, UniProt P00533, INS770NPG); experiment: EGFR activity: Ba/F3 cell viability (CellTiter-Glo, 72 h), EGFR exon 20 NPG insertion; conditions: EGFR exon 20 NPG Ins D770_N771, cell viability, read-out: BaF3 NPG IC50
T1 construct: expressed in transfected cells; host or cells: Ba/F3 (murine pro-B cells), retroviral transduction, puromycin selection, IL3-independent pool
T1 sequence (P00533 with tags, fused parts or gaps INS770NPG): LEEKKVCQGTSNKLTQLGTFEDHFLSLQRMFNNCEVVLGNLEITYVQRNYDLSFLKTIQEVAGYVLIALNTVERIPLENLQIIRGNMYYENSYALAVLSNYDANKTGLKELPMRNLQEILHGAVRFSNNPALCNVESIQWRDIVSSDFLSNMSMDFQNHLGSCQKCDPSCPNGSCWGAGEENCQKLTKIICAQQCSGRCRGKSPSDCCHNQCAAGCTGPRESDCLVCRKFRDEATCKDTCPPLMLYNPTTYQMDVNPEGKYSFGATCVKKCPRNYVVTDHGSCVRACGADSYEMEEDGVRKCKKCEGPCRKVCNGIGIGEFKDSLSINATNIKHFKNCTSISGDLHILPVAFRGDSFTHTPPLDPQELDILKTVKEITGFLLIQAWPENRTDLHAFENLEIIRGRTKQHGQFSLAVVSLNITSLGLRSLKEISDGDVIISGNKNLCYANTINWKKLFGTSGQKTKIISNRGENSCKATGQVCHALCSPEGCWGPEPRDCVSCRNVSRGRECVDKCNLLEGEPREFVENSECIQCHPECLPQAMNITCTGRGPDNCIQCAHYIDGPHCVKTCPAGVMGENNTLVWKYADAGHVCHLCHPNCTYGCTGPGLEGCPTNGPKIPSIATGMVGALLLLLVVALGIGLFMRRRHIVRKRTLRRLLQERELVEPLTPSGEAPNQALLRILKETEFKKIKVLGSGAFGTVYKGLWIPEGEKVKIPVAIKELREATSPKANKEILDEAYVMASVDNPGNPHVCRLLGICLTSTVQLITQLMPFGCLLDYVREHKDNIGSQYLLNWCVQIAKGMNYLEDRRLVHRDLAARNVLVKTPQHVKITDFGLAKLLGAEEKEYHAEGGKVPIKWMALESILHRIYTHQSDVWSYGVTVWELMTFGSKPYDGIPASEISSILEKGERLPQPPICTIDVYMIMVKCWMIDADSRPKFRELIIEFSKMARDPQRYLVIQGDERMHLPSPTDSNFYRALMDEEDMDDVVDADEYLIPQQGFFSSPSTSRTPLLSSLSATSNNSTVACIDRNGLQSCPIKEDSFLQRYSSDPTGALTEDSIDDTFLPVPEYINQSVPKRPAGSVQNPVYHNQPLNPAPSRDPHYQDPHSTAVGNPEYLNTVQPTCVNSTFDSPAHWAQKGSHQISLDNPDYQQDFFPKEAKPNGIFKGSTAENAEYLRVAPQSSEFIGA

Ba/F3 cells with EGFR WT = molecular target: T2, Ba/F3 cells with EGFR WT (Homo sapiens, UniProt P00533); experiment: EGFR activity: Ba/F3 cell viability (CellTiter-Glo, 72 h), EGFR WT; conditions: read-out: BaF3 WT IC50
T2 construct: expressed in transfected cells; host or cells: Ba/F3 (murine pro-B cells), retroviral transduction, puromycin selection, maintained with EGF
T2 sequence (P00533 25-1210): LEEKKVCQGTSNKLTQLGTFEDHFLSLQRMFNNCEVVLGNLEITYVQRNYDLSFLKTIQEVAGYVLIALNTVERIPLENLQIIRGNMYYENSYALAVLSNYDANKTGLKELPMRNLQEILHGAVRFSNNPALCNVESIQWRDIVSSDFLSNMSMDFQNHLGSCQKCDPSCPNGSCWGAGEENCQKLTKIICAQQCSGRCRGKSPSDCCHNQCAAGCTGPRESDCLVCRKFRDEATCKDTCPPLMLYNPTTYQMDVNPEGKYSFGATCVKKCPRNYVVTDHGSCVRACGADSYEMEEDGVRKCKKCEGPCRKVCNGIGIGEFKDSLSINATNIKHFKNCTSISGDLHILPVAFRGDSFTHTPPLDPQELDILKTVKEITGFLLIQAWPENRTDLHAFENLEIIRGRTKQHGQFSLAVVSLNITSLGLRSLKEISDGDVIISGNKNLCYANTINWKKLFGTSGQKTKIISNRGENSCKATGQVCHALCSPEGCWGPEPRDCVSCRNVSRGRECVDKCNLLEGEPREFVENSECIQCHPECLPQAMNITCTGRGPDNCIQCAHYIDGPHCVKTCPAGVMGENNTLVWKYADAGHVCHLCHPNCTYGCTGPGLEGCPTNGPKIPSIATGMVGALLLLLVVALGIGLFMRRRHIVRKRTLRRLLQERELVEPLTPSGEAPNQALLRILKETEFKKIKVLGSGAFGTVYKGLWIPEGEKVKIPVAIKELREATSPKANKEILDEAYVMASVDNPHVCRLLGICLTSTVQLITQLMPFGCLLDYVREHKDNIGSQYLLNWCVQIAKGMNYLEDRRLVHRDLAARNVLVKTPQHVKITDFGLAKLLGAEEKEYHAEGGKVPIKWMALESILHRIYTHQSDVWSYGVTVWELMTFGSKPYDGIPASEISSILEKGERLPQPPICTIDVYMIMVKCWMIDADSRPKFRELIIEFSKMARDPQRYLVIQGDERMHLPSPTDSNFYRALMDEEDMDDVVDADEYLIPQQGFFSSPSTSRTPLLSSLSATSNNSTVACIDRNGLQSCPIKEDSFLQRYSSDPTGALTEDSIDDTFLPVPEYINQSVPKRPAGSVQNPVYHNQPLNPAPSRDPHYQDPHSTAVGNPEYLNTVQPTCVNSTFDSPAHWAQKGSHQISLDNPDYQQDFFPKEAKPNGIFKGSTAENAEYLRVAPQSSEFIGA

[2] = molecular target: T3, Ba/F3 cells with EGFR exon 20 ASV Ins V769_D770 (Homo sapiens, UniProt P00533, INS769ASV); experiment: EGFR activity: Ba/F3 cell viability (CellTiter-Glo, 72 h), EGFR exon 20 ASV insertion; conditions: EGFR exon 20 ASV Ins V769_D770, cell viability, read-out: BaF3 ASV IC50
T3 construct: expressed in transfected cells; host or cells: Ba/F3 (murine pro-B cells), retroviral transduction, puromycin selection, IL3-independent pool
T3 sequence (P00533 with tags, fused parts or gaps INS769ASV): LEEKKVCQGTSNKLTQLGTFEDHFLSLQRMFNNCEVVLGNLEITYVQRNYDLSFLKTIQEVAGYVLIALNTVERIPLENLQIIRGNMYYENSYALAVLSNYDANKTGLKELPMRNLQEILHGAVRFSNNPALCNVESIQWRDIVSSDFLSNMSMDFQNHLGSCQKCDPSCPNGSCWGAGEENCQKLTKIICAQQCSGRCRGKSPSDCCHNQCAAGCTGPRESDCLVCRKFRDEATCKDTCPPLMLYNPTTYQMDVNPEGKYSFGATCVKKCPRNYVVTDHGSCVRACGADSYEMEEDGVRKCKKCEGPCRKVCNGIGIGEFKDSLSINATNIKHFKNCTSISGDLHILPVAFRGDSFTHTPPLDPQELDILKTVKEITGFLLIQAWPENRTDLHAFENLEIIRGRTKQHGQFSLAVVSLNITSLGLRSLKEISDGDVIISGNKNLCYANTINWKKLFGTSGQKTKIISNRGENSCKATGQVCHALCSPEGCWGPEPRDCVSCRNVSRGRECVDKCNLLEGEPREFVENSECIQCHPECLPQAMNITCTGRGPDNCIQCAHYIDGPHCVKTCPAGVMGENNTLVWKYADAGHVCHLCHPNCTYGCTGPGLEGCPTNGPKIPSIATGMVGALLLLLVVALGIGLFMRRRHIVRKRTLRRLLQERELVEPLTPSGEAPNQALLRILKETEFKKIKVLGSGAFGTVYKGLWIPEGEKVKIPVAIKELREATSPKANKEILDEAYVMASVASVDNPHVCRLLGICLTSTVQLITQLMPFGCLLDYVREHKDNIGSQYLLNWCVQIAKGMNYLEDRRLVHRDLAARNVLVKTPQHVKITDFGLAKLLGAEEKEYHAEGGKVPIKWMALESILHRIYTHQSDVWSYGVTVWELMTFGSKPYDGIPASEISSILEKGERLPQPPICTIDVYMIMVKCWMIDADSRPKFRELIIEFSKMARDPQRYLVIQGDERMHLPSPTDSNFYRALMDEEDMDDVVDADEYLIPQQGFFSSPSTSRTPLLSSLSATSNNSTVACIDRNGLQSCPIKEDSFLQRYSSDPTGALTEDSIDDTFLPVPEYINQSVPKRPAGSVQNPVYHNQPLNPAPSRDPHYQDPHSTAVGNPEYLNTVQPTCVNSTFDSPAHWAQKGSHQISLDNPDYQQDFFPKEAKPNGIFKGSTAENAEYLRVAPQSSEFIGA

[3] = molecular target: T4, pEGFR in Ba/F3 cells expressing EGFR exon 20 NPG Ins D770_N771 (Homo sapiens, UniProt P00533, INS770NPG); experiment: Inhibitor activity on EGFR phosphorylation (pEGFR AlphaLISA, 2 h), Ba/F3 EGFR exon 20 NPG insertion; conditions: Ba/F3 EGFR exon 20 NPG Ins D770_N771
T4 construct: expressed in transfected cells; host or cells: Ba/F3 (murine pro-B cells), retroviral transduction, puromycin selection, IL3-independent pool
T4 sequence (P00533 with tags, fused parts or gaps INS770NPG): as the sequence (P00533 with tags, fused parts or gaps INS770NPG) above

pEGFR in CUTO14 cells = molecular target: T5, pEGFR in CUTO14 cells (Homo sapiens, UniProt P00533, DUP767-769); experiment: Inhibitor activity on EGFR phosphorylation (pEGFR AlphaLISA, 2 h), CUTO14 cells
T5 construct: endogenous in cells; host or cells: CUTO14 cells
Experimental: CUTO14 cells were obtained from Dr. Robert C. Doebele at the University of Colorado.
Shake 350 rpm for 1 hr in the dark • 3.4 Prepare donor mix under low light conditions prior to use. Dispense 5 μL of donor mix to all the wells. Mix well on the shaker, seal and wrap in aluminum foil and incubate 1.5 hrs at room temperature in the dark • 3.5 Transfer 18.5 μL mixture to OptiPlate 384, and read using an Envision.

SMILES | pIC50 [1] | pIC50 (Ba/F3 cells with EGFR WT) | pIC50 [2] | pIC50 [3] | pIC50 (pEGFR in CUTO14 cells)
C=CC(=O)N1CCC[C@@H]1COc1cnccc1-c1[nH]c2c(c1Nc1cccc(Cl)c1OC)C(=O)NCC2 [Compound 138a, 3-[(3-chloro-2-methoxyphenyl)amino]-2-(3-[[(2R)-1-(prop-2-enoyl)pyrrolidin-2-yl]methoxy]pyridin-4-yl)-1H,5H,6H,7H-pyrrolo[3,2-c]pyridin-4-one] | > 7.00 | 6.00 to 7.00 | > 7.00 | > 7.00 | –
C=CC(=O)N1CCC[C@H]1COc1cnccc1-c1[nH]c2c(c1Nc1cccc(Cl)c1OC)C(=O)NCC2 [Compound 138b, (S)-2-(3-((1-acryloylpyrrolidin-2-yl)methoxy)pyridin-4-yl)-3-((3-chloro-2-methoxyphenyl)amino)-1,5,6,7-tetrahydro-4H-pyrrolo[3,2-c]pyridin-4-one] | > 7.00 | 6.00 to 7.00 | > 7.00 | > 7.00 | –
CCC(=O)N1CCC[C@H]1COc1cnccc1-c1[nH]c2c(c1Nc1cccc(Cl)c1OC)C(=O)NCC2 [Compound 139, (S)-3-((3-chloro-2-methoxyphenyl)amino)-2-(3-((1-propionylpyrrolidin-2-yl)methoxy)pyridin-4-yl)-1,5,6,7-tetrahydro-4H-pyrrolo[3,2-c]pyridin-4-one] | < 6.00 | < 6.00 | < 6.00 | 6.00 to 7.00 | –
COc1c(Cl)cccc1Nc1c(-c2ccncc2OC[C@H]2CCCN2C(C)=O)[nH]c2c1C(=O)NCC2 [Compound 141b, 2-(3-[[(2R)-1-acetylpyrrolidin-2-yl]methoxy]pyridin-4-yl)-3-[(3-chloro-2-methoxyphenyl)amino]-1H,5H,6H,7H-pyrrolo[3,2-c]pyridin-4-one] | < 6.00 | < 6.00 | – | > 7.00 | –
COc1c(Cl)cccc1Nc1c(-c2ccncc2OC[C@H]2CCCN2S(C)(=O)=O)[nH]c2c1C(=O)NCC2 [Compound 142b, 3-[(3-chloro-2-methoxyphenyl)amino]-2-(3-[[(2R)-1-methanesulfonylpyrrolidin-2-yl]methoxy]pyridin-4-yl)-1H,5H,6H,7H-pyrrolo[3,2-c]pyridin-4-one] | > 7.00 | 6.00 to 7.00 | > 7.00 | > 7.00 | –
COc1c(Cl)cccc1Nc1c(-c2ccncc2C#CC(C)(C)OC)[nH]c2c1C(=O)NCC2 [Compound 188, 3-((3-chloro-2-methoxyphenyl)amino)-2-(3-(3-methoxy-3-methylbut-1-yn-1-yl)pyridin-4-yl)-1,5,6,7-tetrahydro-4H-pyrrolo[3,2-c]pyridin-4-one] | > 7.00 | > 7.00 | 6.00 to 7.00 | > 7.00 | –
C=CC(=O)N1CCCC[C@@H]1COc1cnccc1-c1[nH]c2c(c1Nc1cccc(F)c1C)C(=O)NCC2 [Compound 468, 3-[(3-fluoro-2-methylphenyl)amino]-2-(3-[[(2R)-1-(prop-2-enoyl)piperidin-2-yl]methoxy]pyridin-4-yl)-1H,5H,6H,7H-pyrrolo[3,2-c]pyridin-4-one] | 6.00 to 7.00 | 6.00 to 7.00 | 6.00 to 7.00 | > 7.00 | –
CCC(=O)N1CCC[C@@H]1COc1cnccc1-c1[nH]c2c(c1Nc1cccc(Cl)c1OC)C(=O)NCC2 [Compound 470, 3-[(3-chloro-2-methoxyphenyl)amino]-2-(3-[[(2R)-1-propanoylpyrrolidin-2-yl]methoxy]pyridin-4-yl)-1H,5H,6H,7H-pyrrolo[3,2-c]pyridin-4-one] | < 6.00 | < 6.00 | < 6.00 | 6.00 to 7.00 | –
COc1c(F)cccc1Nc1c(-c2ccncc2OCc2ccccn2)[nH]c2c1C(=O)NCC2 [Compound 472, 3-[(3-fluoro-2-methoxyphenyl)amino]-2-[3-(pyridin-2-ylmethoxy)pyridin-4-yl]-1H,5H,6H,7H-pyrrolo[3,2-c]pyridin-4-one] | > 7.00 | > 7.00 | > 7.00 | > 7.00 | –
COc1cccnc1COc1cnccc1-c1[nH]c2c(c1Nc1cccc(F)c1OC)C(=O)NCC2 [Compound 476, 3-[(3-fluoro-2-methoxyphenyl)amino]-2-[3-[(3-methoxypyridin-2-yl)methoxy]pyridin-4-yl]-1H,5H,6H,7H-pyrrolo[3,2-c]pyridin-4-one] | > 7.00 | 6.00 to 7.00 | > 7.00 | > 7.00 | –
COc1c(F)cccc1Nc1c(-c2ccncc2OCn2nnc3ccccc32)[nH]c2c1C(=O)NCC2 [Compound 479, 2-[3-(1,2,3-benzotriazol-1-ylmethoxy)pyridin-4-yl]-3-[(3-fluoro-2-methoxyphenyl)amino]-1H,5H,6H,7H-pyrrolo[3,2-c]pyridin-4-one] | < 6.00 | < 6.00 | – | 6.00 to 7.00 | –
COc1c(F)cccc1Nc1c(-c2ccncc2OCc2nccn2C)[nH]c2c1C(=O)NCC2 [Compound 482, 3-[(3-fluoro-2-methoxyphenyl)amino]-2-[3-[(1-methylimidazol-2-yl)methoxy]pyridin-4-yl]-1H,5H,6H,7H-pyrrolo[3,2-c]pyridin-4-one] | 6.00 to 7.00 | < 6.00 | – | > 7.00 | –
COc1c(F)cccc1Nc1c(-c2ccncc2OCC2CCc3ncnn32)[nH]c2c1C(=O)NCC2 (stereo not shown) [compound 133] | 6.00 to 7.00 | < 6.00 | – | > 7.00 | –
C=CC(=O)N1CCC[C@H]1COc1cnccc1-c1[nH]c2c(c1Nc1cccc(F)c1CC)C(=O)NCC2 [compound 211, 3-[(2-ethyl-3-fluorophenyl)amino]-2-(3-{[(2S)-1-(prop-2-enoyl)pyrrolidin-2-yl]methoxy}pyridin-4-yl)-1H,5H,6H,7H-pyrrolo[3,2-c] pyridin-4-one] | > 7.00 | > 7.00 | > 7.00 | > 7.00 | –
C=C(F)C(=O)N1CC[C@@H]1COc1cnccc1-c1[nH]c2c(c1Nc1cccc(Cl)c1OC)C(=O)NCC2 [compound 226, 3-[(3-chloro-2-methoxyphenyl)amino]-2-(3-{[(2R)-1-(2-fluoroprop-2-enoyl)azetidin-2-yl]methoxy}pyridin-4-yl)-1H,5H,6H,7H-pyrrolo[3,2-c]pyridin-4-one] | > 7.00 | 6.00 to 7.00 | > 7.00 | > 7.00 | –
C=CC(=O)N1CCC[C@]1(C)C#Cc1cnccc1-c1[nH]c2c(c1Nc1cccc(F)c1OC)C(=O)NCC2 [compound 245, 3-[(3-fluoro-2-methoxyphenyl)amino]-2-(3-{2-[(2R)-2-methyl-1-(prop-2-enoyl)pyrrolidin-2-yl]ethynyl}pyridin-4-yl)-1H,5H,6H,7H-pyrrolo[3,2-c]pyridin-4-one] | – | – | – | > 7.00 | > 7.00
C=CC(=O)NC(C)(C)C#Cc1cnccc1-c1[nH]c2c(c1Nc1cccc(F)c1OC)C(=O)NCC2 [compound 258, N-[4-(4-{3-[(3-fluoro-2-methoxyphenyl)amino]-4-oxo-1H,5H,6H,7H-pyrrolo[3,2-c]pyridin-2-yl}pyridin-3-yl)-2-methylbut-3-yn-2-yl]prop-2-enamide] | – | – | – | > 7.00 | > 7.00
COc1c(Cl)cccc1Nc1c(-c2ccncc2C#C[C@@H]2CN(C)CCO2)[nH]c2c1C(=O)NCC2 [compound 496] | > 7.00 | < 6.00 | > 7.00 | > 7.00 | –

Source: patent publication US20230364070A1, “PYRROLO[3,2-C]PYRIDIN-4-ONE DERIVATIVES USEFUL IN THE TREATMENT OF CANCER” (Scorpion Therapeutics, Inc., priority 2020, published 2023)
